Source: US20150329558A1, “FUSED HETEROCYCLIC COMPOUNDS AS ION CHANNEL MODULATORS” (Gilead Sciences, Inc., priority 2011, published 2015)

Target: wild-type human cardiac sodium channel, hNav1.5 (late INa) (Homo sapiens, UniProt Q14524)
Experiment: Late INa screening assay (QPatch whole cell patch clamp)
Format: cell-based
Settings: percent block of late INa, compound at 1 μM, 10 μM Tefluthrin, HEK293 hNav1.5; read-out: Late INa 1 μM
Description: The late sodium current (Late INa) and peak sodium current (Peak INa) assays are performed on an automated electrophysiology platform, QPatch 16× (Sophion Bioscience, Copenhagen, Denmark), which uses the whole cell patch clamp technique to measure currents through the cell membrane of up to 16 cells at a time. The assay uses an HEK293 (human embryonic kidney) cell line heterologously expressing the wild-type human cardiac sodium channel, hNav1.5, purchased from Millipore (Billerica, Mass.). No beta subunits were coexpressed with the Na channel alpha subunit. Cells are maintained with standard tissue culture procedures and stable channel expression is maintained with 400 μg/mL Geneticin in the culture medium. […] Experiments are carried out at 23-25° C. For both the Late INa and Peak INa assays, series resistance compensation is set to 100% and series resistance and whole-cell compensation are performed automatically. Currents are digitized at 25 kHz and low-pass filtered at 12 kHz and 10 kHz for the late and peak INa assays, respectively. Currents through open sodium channels are automatically recorded and stored in the Sophion Bioscience Oracle database (Sophion Bioscience, Copehagen, Denmark). Analysis is performed using QPatch Assay and database software and data are compiled in Excel. Compound stocks are routinely made by the Gilead Sample Bank in plastic vials to 10 mM in dimethyl sulfoxide (DMSO). In some cases, when compounds are not soluble in DMSO, they are made in 100% ethanol. Stocks are sonicated as necessary. […] The intracellular solution used to perfuse the inside of the cells for both the Late INa and Peak INa assays contains: 120 mM CsF, 20 mM CsCl, 5 mM EGTA, 5 mM HEPES and pH adjusted to 7.4 with CsOH. Compounds are diluted in extracellular solution to 1 μM in glass vials and then transferred to glass well plates before robotic addition to the cells. […] For the Late INa assay, sodium channels are activated every 10 seconds (0.1 Hz) by depolarizing the cell membrane to −20 mV for 250 milliseconds (ms) from a holding potential of −120 mV. In response to a −20 mV voltage step, typical hNav1.5 sodium currents activate rapidly to a peak negative current and then inactivate nearly completely within 3-4 ms. All compounds were tested to determine their activity in blocking the late sodium current. Late INa was generated by adding 10 μM Tefluthrin (pyrethroid) to the extracellular solution while recording Na currents. To confirm the block of late INa observed using the automated screening method, a second late INa enhancer (ATX-II) and the manual patch clamp method were used. ATX-II and tefluthrin occupy distinct, non-overlapping binding sites and modify Na^+ channel function differently to increase late INa. […] For the purposes of the screening, late INa is defined as the mean current between 225 ms and 250 ms after stepping to −20 mV to activate Na channels. […] Results are reported as percent block of late INa.

Chain of wild-type human cardiac sodium channel, hNav1.5 (late INa) (Q14524 whole entry): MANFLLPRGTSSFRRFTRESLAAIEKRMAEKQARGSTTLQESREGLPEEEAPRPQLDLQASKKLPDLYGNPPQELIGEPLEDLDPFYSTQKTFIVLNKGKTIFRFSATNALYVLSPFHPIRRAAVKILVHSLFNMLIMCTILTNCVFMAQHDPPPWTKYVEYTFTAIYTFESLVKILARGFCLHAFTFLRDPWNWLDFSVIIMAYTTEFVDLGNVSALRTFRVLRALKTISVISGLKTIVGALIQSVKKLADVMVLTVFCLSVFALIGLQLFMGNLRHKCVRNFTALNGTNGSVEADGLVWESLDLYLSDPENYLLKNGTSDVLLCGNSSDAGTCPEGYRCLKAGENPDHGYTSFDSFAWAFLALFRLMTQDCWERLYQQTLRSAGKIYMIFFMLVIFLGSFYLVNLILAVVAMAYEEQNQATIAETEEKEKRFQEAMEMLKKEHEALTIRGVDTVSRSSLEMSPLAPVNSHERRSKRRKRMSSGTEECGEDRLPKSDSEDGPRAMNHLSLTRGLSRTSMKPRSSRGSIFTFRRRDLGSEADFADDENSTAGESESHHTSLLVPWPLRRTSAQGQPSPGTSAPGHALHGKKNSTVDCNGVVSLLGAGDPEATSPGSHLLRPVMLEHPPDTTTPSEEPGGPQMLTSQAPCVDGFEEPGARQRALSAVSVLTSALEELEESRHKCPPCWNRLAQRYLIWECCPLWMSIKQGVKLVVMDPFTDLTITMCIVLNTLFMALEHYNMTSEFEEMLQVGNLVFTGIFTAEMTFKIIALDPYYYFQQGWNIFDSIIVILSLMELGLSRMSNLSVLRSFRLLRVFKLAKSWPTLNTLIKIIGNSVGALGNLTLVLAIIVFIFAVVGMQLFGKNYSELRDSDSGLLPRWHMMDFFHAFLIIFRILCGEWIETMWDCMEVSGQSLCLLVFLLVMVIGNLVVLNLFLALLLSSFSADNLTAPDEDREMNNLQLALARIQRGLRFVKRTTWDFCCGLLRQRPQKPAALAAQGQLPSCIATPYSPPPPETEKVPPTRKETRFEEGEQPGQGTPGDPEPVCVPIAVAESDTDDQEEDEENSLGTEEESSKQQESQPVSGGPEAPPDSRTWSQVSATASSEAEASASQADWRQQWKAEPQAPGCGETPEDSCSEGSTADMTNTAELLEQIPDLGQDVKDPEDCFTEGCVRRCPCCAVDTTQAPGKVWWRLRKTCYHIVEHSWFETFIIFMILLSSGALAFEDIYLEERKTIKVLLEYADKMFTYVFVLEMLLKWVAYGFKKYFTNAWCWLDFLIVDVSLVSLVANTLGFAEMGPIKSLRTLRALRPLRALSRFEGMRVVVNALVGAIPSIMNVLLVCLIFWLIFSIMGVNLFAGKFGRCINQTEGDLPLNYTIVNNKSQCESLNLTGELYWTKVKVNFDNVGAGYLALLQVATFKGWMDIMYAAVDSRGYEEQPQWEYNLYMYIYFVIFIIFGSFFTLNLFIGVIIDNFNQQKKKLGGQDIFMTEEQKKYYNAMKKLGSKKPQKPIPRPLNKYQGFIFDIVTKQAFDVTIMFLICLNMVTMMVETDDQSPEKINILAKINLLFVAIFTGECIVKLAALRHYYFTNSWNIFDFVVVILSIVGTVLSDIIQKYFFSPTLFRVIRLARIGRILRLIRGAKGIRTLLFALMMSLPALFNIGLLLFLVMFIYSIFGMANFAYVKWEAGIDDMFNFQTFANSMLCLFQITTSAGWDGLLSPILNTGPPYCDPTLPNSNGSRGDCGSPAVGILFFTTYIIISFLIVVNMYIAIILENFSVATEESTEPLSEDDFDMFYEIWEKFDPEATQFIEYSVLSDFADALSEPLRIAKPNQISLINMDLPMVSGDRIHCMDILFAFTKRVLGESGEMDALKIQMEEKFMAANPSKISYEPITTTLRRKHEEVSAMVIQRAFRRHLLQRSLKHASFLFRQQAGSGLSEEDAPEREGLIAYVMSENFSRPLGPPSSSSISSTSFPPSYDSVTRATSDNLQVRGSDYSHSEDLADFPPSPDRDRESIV

First: Cc1nn(C)c(C)c1C(=O)N1CCc2ccc(-c3ccc(C(F)(F)F)cc3)cc2C1 [IX-26, (7-(4-(trifluoromethyl)phenyl)-3,4-dihydroisoquinolin-2(1H)-yl)(1,3,5-trimethyl-1H-pyrazol-4-yl)methanone]
Second: Cc1nn(C)cc1C(=O)N1CCc2ccc(-c3ccc(C(F)(F)F)cc3)cc2C1 [IX-28, (1,3-dimethyl-1H-pyrazol-4-yl)(7-(4-(trifluoromethyl)phenyl)-3,4-dihydroisoquinolin-2(1H)-yl)methanone]
The inhibition at 1 µM of the first is lower: 15% for the first, 24% for the second.

Going from `CC(C)n1cc(C(=O)N2CCc3ccc(-c4ccc(C(F)(F)F)cc4)cc3C2)cn1` [IX-27, (1-isopropyl-1H-pyrazol-4-yl)(7-(4-(trifluoromethyl)phenyl)-3,4-dihydroisoquinolin-2(1H)-yl)methanone] to `Cn1cncc1C(=O)N1CCc2ccc(-c3ccc(C(F)(F)F)cc3)cc2C1` [IX-56, (1-methyl-1H-imidazol-5-yl)(7-(4-(trifluoromethyl)phenyl)-3,4-dihydroisoquinolin-2(1H)-yl)methanone], the inhibition at 1 µM rises from 18% to 28%.

First: O=C(Cc1ncccn1)N1CCc2ccc(-c3ccc(C(F)(F)F)cc3)cc2C1 [IX-30, 2-(pyrimidin-2-yl)-1-(7-(4-(trifluoromethyl)phenyl)-3,4-dihydroisoquinolin-2(1H)-yl)ethanone]
Second: O=C(c1ccncn1)N1CCc2ccc(-c3ccc(C(F)(F)F)cc3)cc2C1 [IX-32, pyrimidin-4-yl(7-(4-(trifluoromethyl)phenyl)-3,4-dihydroisoquinolin-2(1H)-yl)methanone]
The inhibition at 1 µM of the first is lower: 20% for the first, 29% for the second.

Compared with `CC(C)c1nccc(C(=O)N2CCc3ccc(-c4ccc(C(F)(F)F)cc4)cc3C2)n1` [IX-31, (2-isopropylpyrimidin-4-yl)(7-(4-(trifluoromethyl)phenyl)-3,4-dihydroisoquinolin-2(1H)-yl)methanone], `Cc1cc(C(=O)N2CCc3ccc(-c4ccc(C(F)(F)F)cc4)cc3C2)nc(N)n1` [IX-34, (2-amino-6-methylpyrimidin-4-yl)(7-(4-(trifluoromethyl)phenyl)-3,4-dihydroisoquinolin-2(1H)-yl)methanone] is lower in inhibition at 1 µM: 25% for the first, 16% for the second.

Compared with `O=C(c1cncnc1)N1CCc2ccc(-c3ccc(C(F)(F)F)cc3)cc2C1` [IX-33, pyrimidin-5-yl(7-(4-(trifluoromethyl)phenyl)-3,4-dihydroisoquinolin-2(1H)-yl)methanone], `O=C(c1ccn[nH]1)N1CCc2ccc(-c3ccc(C(F)(F)F)cc3)cc2C1` [IX-36, (1H-pyrazol-5-yl)(7-(4-(trifluoromethyl)phenyl)-3,4-dihydroisoquinolin-2(1H)-yl)methanone] is lower in inhibition at 1 µM: 21% for the first, 20% for the second.

Compared with `O=C(NCc1ccccc1)N1CCc2ccc(-c3ccc(C(F)(F)F)cc3)cc2C1` [IX-41, N-benzyl-7-(4-(trifluoromethyl)phenyl)-3,4-dihydroisoquinoline-2(1H)-carboxamide], `O=C(Nc1ccccc1)N1CCc2ccc(-c3ccc(C(F)(F)F)cc3)cc2C1` [IX-42, N-phenyl-7-(4-(trifluoromethyl)phenyl)-3,4-dihydroisoquinoline-2(1H)-carboxamide] is lower in inhibition at 1 µM: 27% for the first, 25% for the second.

Going from `O=C(NC1CC1)N1CCc2ccc(-c3ccc(C(F)(F)F)cc3)cc2C1` [IX-44, N-cyclopropyl-7-(4-(trifluoromethyl)phenyl)-3,4-dihydroisoquinoline-2(1H)-carboxamide] to `O=C(N1CCOCC1)N1CCc2ccc(-c3ccc(C(F)(F)F)cc3)cc2C1` [IX-52, morpholino(7-(4-(trifluoromethyl)phenyl)-3,4-dihydroisoquinolin-2(1H)-yl)methanone], the inhibition at 1 µM falls from 27% to 26%.

For `O=C(c1[nH]cnc1F)N1CCc2ccc(-c3ccc(C(F)(F)F)cc3)cc2C1` [IX-59, (4-fluoro-1H-imidazol-5-yl)(7-(4-(trifluoromethyl)phenyl)-3,4-dihydroisoquinolin-2(1H)-yl)methanone], the inhibition at 1 µM was 17%.
